The nature of series [1]: Solubility of AQS ionic derivatives in MeCN, measured by UV-vis (Beer's law). In kind it is physicochemical. To be noted: cooled to room temperature after stirring at 40° C. An excerpt: Beer's law was used to measure the concentration of the solution using pre-determined molar extinction coefficient using standard calibration curve.
The conditions of series [2]: vanadium(iv) ion chelation; cited from earlier work.
For series [3] the following is noted: vs. SHE in DMSO; cited from earlier work.
Series [4] can be described thus: Cyclic voltammetry of AQS (Randles-Sevcik analysis). The format is physicochemical. As to the method:
Cyclic voltammetry was performed at room temperature in inert atmosphere of dinitrogen using three electrode cell on a VersaSTAT3 workstation. (Princeton Applied Research, USA). Glassy carbon (3 mm, Basi) was employed as working electrode and platinum wire was used as counter electrode. Ag wire was used as pseudo reference electrode with Fc/Fc^+ couple as an internal standard for initial redox potential evaluation. Subsequently, all potentials were referenced to SHE. Diffusion coefficient was calculated using Randles-Sevcik equation as follow.
where, ip is the peak current, n is number electron in redox reaction, F is faraday constant, A is geometrical surface area of electrode, C is the bulk concentration of analyte, ν is scan rate, D is diffusion coefficient and R and T are gas constant and absolute temperature. CV curves were obtained at various scan rate and peak current were plotted against square root of scan rate. Slope (m) of the linear fit was used to determine diffusion coefficient using following equation.

Consider `CC[N+](CC)(CC)CC.O=C1c2ccccc2C(=O)c2cc(S(=O)(=O)[O-])ccc21` [N2222AQS], for which, in series [1], the Solubility was 105 mM.

Regarding `C[C@@H](C(=O)[O-])N(O)[C@@H](C)C(=O)[O-].C[C@@H](C(=O)[O-])N(O)[C@@H](C)C(=O)[O-].[V+4]` [Amavadin], the “log equilibrium constant (log Keq), stability constant” value in series [2] is recorded as 23. On to `O=C1c2ccccc2C(=O)c2cc(S(=O)(=O)[O-])ccc21.[Na+]` [NaAQS, sodium anthraquinone-2-sulfonate, reference compound], for which the solubility at 15 min in series [1] (MeCN (acetonitrile), organic solvent or mixture, thermodynamic from solid) is under 1 mM. For the compound “vanadium(IV/V)bis-hydroxyiminodiacetate [VBH]”, the “E° (standard potential)” value in series [3] is reported as 0.30 V. As to `CCC[N+](CCC)(CCC)CCC.O=C1c2ccccc2C(=O)c2cc(S(=O)(=O)[O-])ccc21` [N3333AQS], in series [1], the Solubility stood at 640 mM. As for `O=C1c2ccccc2C(=O)c2ccccc21` [AQ, reference compound], the Solubility in series [1] was under 5 mM. `O=C1c2ccccc2C(=O)c2cc(S(=O)(=O)O)ccc21` [AQS, Anthraquinone 2-sulfonate]: in series [4] (CV at various scan rates, Randles-Sevcik plot), the diffusion coefficient is 8.46×10^−6 cm^2 s^−1. In addition, in series [4] (vs SHE), the “potential of first electrochemically reversible wave (1^−/2^− couple)” value is −0.6 V and the “potential of second electrochemically reversible wave (2^−/3^− couple)” value is −1.2 V. For `CCCC[N+](CCCC)(CCCC)CCCC.O=C1c2ccccc2C(=O)c2cc(S(=O)(=O)[O-])ccc21` [N4444AQS], the Solubility in series [1] was found to be 1260 mM.
